Assay results published in US8138334B2, “Substituted oxa-diaza-spiro-[5.5]-undecanone derivatives and their use as neurokinin antagonists” (Janssen Pharmaceutica N.V., priority 2005, dated 2012).

Tests used:
NK3 = target: T1, NK3 (Homo sapiens, UniProt P29371); assay: Signal transduction (ST), intracellular Ca++ FLIPR, NK3; type: cell-based; conditions: antagonist, read-out: NK3 pIC50 (converted)
T1 sequence (P29371 1-465): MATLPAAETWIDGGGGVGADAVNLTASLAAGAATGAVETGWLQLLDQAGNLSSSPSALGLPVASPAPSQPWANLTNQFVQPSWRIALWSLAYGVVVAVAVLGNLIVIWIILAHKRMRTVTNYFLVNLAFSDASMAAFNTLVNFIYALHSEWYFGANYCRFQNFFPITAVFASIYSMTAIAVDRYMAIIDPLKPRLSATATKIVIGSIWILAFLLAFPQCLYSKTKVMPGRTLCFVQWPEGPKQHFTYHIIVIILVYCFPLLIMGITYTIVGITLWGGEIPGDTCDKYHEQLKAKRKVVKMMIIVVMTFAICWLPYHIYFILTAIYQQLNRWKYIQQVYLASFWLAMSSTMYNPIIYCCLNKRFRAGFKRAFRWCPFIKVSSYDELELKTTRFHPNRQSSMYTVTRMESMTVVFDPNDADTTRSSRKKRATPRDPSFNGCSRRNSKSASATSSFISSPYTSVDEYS

NK1 = NK1 (Homo sapiens, UniProt P25103); assay: Signal transduction (ST), intracellular Ca++ FLIPR, NK1; type: cell-based; conditions: antagonist, read-out: NK1 pIC50 (converted)
Protocol: This test evaluates in vitro functional NK1 antagonistic activity. For the measurements of intracellular Ca^++ concentrations the cells were grown on 96-well (black wall/transparent bottom) plates from Costar for 2 days until they reached confluence. The cells were loaded with 2 μM Fluo3 in DMEM containing 0.1% BSA and 2.5 mM probenecid for 1 h at 37° C. They were washed 3× with a Krebs buffer (140 mM NaCl, 1 mM MgCl2×6H2O, 5 mM KCl, 10 mM glucose, 5 mM HEPES; 1.25 mM CaCl2; pH 7.4) containing 2.5 mM probenecid and 0.1% BSA (Ca^++-buffer). The cells were preincubated with a concentration range of antagonists for 20 min at RT and Ca^++-signals after addition of the agonists were measured in a Fluorescence Image Plate Reader (FLIPR from Molecular Devices, Crawley, England). The peak of the Ca^++-transient was considered as the relevant signal and the mean values of corresponding wells were analysed as described below.
The sigmoidal dose response curves were analysed by computerised curve-fitting, using the GraphPad Program. The EC50-value of a compound is the effective dose showing 50% of maximal effect. For mean curves the response to the agonist with the highest potency was normalised to 100%. For antagonist responses the IC50-value was calculated using non-linear regression. […]

NK2 = target: T2, NK2 (Homo sapiens, UniProt P21452); assay: Signal transduction (ST), intracellular Ca++ FLIPR, NK2; type: cell-based; conditions: antagonist, read-out: NK2 pIC50 (converted)
T2 sequence (P21452 1-398): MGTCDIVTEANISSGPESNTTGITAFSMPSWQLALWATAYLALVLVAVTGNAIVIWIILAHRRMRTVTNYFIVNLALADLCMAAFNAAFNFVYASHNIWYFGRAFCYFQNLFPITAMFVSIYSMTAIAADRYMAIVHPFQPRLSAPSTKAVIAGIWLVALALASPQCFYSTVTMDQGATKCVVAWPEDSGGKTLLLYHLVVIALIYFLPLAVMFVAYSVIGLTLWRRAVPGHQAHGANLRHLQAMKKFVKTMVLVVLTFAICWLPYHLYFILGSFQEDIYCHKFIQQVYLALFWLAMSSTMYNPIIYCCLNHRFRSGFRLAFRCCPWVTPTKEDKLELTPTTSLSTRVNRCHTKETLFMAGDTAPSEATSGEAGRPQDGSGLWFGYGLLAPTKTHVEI

NK1, sequence (P25103 whole entry): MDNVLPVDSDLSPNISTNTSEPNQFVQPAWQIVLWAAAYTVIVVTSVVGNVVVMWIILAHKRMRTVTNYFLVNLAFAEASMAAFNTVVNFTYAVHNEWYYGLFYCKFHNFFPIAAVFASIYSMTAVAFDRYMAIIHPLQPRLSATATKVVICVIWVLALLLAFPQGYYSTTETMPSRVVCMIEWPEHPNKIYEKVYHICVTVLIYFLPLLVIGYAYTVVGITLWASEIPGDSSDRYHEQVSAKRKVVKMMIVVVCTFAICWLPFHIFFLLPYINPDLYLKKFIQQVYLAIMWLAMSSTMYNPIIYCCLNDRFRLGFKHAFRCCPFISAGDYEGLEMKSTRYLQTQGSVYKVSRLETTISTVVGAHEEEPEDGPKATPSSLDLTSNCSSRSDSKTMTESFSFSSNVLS

With O=C(c1ccoc1)N1CCC2(CC1)CCN(C1CCN(C(=O)c3cc(C(F)(F)F)cc(C(F)(F)F)c3)C(Cc3ccccc3)C1)C(=O)O2 (stereo not drawn) [Compound 1.7] the IC50 (NK3) was 126 nM, the IC50 (NK1) was 15.8 nM and the IC50 (NK2) was 7940 nM.

With O=C1OC2(CCN1Cc1cccnc1)CCN(C1CCN(C(=O)c3cc(C(F)(F)F)cc(C(F)(F)F)c3)C(Cc3ccccc3)C1)CC2 (single isomer, unassigned) [Compound 2.16] the IC50 (NK3) was 1580 nM, the IC50 (NK1) was 398 nM and the IC50 (NK2) was over 10000 nM.

Compound Cn1cccc1CN1CCC2(CCN(C3CCN(C(=O)c4cc(C(F)(F)F)cc(C(F)(F)F)c4)C(Cc4ccccc4)C3)CC2)OC1=O (single isomer, unassigned) [Compound 2.9] has an IC50 (NK3) of 3160 nM and an IC50 (NK1) of 631 nM.

Compound O=C(c1cnccn1)N1CCC2(CC1)CCN(C1CCN(C(=O)c3cc(C(F)(F)F)cc(C(F)(F)F)c3)C(Cc3ccccc3)C1)C(=O)O2 (stereo not drawn) [Compound 1.13] has an IC50 (NK3) of 1580 nM, an IC50 (NK1) of 50.1 nM and an IC50 (NK2) of 7940 nM.

With O=C1OC2(CCN1Cc1cccnc1)CCN(C1CCN(C(=O)c3cc(C(F)(F)F)cc(C(F)(F)F)c3)C(Cc3ccccc3)C1)CC2 (single isomer, unassigned) [Compound 2.17] the IC50 (NK3) was 6310 nM, the IC50 (NK1) was 100 nM and the IC50 (NK2) was 2510 nM.

For O=C(c1ccoc1)N1CCC2(CC1)CCN(C1CCN(C(=O)c3cc(C(F)(F)F)cc(C(F)(F)F)c3)C(Cc3ccccc3)C1)C(=O)O2 (stereo not drawn) [Compound 1.8], the IC50 (NK1) was 25.1 nM and the melting point was 192 °C.

O=C(C1CCOC1)N1CCC2(CC1)CCN([C@H]1CCN(C(=O)c3cc(C(F)(F)F)cc(C(F)(F)F)c3)[C@H](Cc3ccccc3)C1)C(=O)O2 (stereo partly drawn) [Compound 1.5] gave an IC50 (NK3) of 251 nM, an IC50 (NK1) of 12.6 nM and an IC50 (NK2) of 7940 nM.

For CCC(CC)CN1CCC2(CCN(C3CCN(C(=O)c4cc(C(F)(F)F)cc(C(F)(F)F)c4)C(Cc4ccccc4)C3)CC2)OC1=O (single isomer, unassigned) [Compound 2.3], the IC50 (NK3) was 5010 nM, the IC50 (NK1) was 398 nM and the IC50 (NK2) was over 10000 nM.

Work on O=C(c1ccccc1)N1CCC2(CC1)CCN(C1CCN(C(=O)c3cc(C(F)(F)F)cc(C(F)(F)F)c3)C(Cc3ccccc3)C1)C(=O)O2 (stereo not drawn) [Compound 1.12] yielded an IC50 (NK1) of 50.1 nM and a melting point of 110 °C.

Cc1ccccc1CN1CCC2(CCN(C3CCN(C(=O)c4cc(C(F)(F)F)cc(C(F)(F)F)c4)C(Cc4ccccc4)C3)CC2)OC1=O (stereo not drawn) [Compound 2.12] showed an IC50 (NK3) of 5010 nM, an IC50 (NK1) of 251 nM and an IC50 (NK2) of 3980 nM.

In the case of CC(C)(C)CN1CCC2(CCN(C3CCN(C(=O)c4cc(C(F)(F)F)cc(C(F)(F)F)c4)C(Cc4ccccc4)C3)CC2)OC1=O (single isomer, unassigned) [Compound 2.1], the IC50 (NK1) was 251 nM and the IC50 (NK2) was over 10000 nM.

For O=C(C1CCOC1)N1CCC2(CC1)CCN(C1CCN(C(=O)c3cc(C(F)(F)F)cc(C(F)(F)F)c3)C(Cc3ccccc3)C1)C(=O)O2 (stereo not drawn) [Compound 1.6], the IC50 (NK1) was 25.1 nM and the melting point was 102 °C.

With O=C1OC2(CCN1Cc1ccc(O)cc1)CCN(C1CCN(C(=O)c3cc(C(F)(F)F)cc(C(F)(F)F)c3)C(Cc3ccccc3)C1)CC2 (stereo not drawn) [Compound 2.15] the IC50 (NK3) was 2000 nM, the IC50 (NK1) was 316 nM and the IC50 (NK2) was over 10000 nM.

In the case of O=C(C1CC1)N1CCC2(CC1)CCN([C@H]1CCN(C(=O)c3cc(C(F)(F)F)cc(C(F)(F)F)c3)[C@H](Cc3ccccc3)C1)C(=O)O2 [Compound 1.4], the IC50 (NK3) was 126 nM, the IC50 (NK1) was 12.6 nM and the IC50 (NK2) was 1000 nM.

In the case of O=C1OC2(CCN1CC1CCCCC1)CCN(C1CCN(C(=O)c3cc(C(F)(F)F)cc(C(F)(F)F)c3)C(Cc3ccccc3)C1)CC2 (stereo not drawn) [Compound 2.5], the IC50 (NK3) was over 10000 nM, the IC50 (NK1) was 200 nM and the IC50 (NK2) was 5010 nM.

Work on O=C1OC2(CCN1Cc1ccsc1)CCN(C1CCN(C(=O)c3cc(C(F)(F)F)cc(C(F)(F)F)c3)C(Cc3ccccc3)C1)CC2 (stereo not drawn) [Compound 2.7] yielded an IC50 (NK1) of 158 nM and an IC50 (NK2) of 3980 nM.

Compound O=C1OC2(CCN1Cc1ccsc1)CCN(C1CCN(C(=O)c3cc(C(F)(F)F)cc(C(F)(F)F)c3)C(Cc3ccccc3)C1)CC2 (stereo not drawn) [Compound 2.6] has an IC50 (NK3) of 2510 nM, an IC50 (NK1) of 200 nM and an IC50 (NK2) of over 10000 nM.

Cc1nnsc1C(=O)N1CCC2(CC1)CCN(C1CCN(C(=O)c3cc(C(F)(F)F)cc(C(F)(F)F)c3)C(Cc3ccccc3)C1)C(=O)O2 (stereo not drawn) [Compound 1.10] showed an IC50 (NK3) of 316 nM, an IC50 (NK1) of 12.6 nM and an IC50 (NK2) of 6310 nM.

Compound O=C1OC2(CCN1Cc1ccoc1)CCN(C1CCN(C(=O)c3cc(C(F)(F)F)cc(C(F)(F)F)c3)C(Cc3ccccc3)C1)CC2 (stereo not drawn) [Compound 2.8] has an IC50 (NK3) of 6310 nM, an IC50 (NK1) of 251 nM and an IC50 (NK2) of over 10000 nM.

With O=C(c1ccccc1)N1CCC2(CC1)CCN(C1CCN(C(=O)c3cc(C(F)(F)F)cc(C(F)(F)F)c3)C(Cc3ccccc3)C1)C(=O)O2 (stereo not drawn) [Compound 1.11] the IC50 (NK3) was 794 nM, the IC50 (NK1) was 31.6 nM and the IC50 (NK2) was over 10000 nM.

Work on Cn1cccc1CN1CCC2(CCN(C3CCN(C(=O)c4cc(C(F)(F)F)cc(C(F)(F)F)c4)C(Cc4ccccc4)C3)CC2)OC1=O (single isomer, unassigned) [Compound 2.10] yielded an IC50 (NK3) of 3980 nM, an IC50 (NK1) of 79.4 nM and an IC50 (NK2) of 2000 nM.

Work on CC(C)(C)CN1CCC2(CCN(C3CCN(C(=O)c4cc(C(F)(F)F)cc(C(F)(F)F)c4)C(Cc4ccccc4)C3)CC2)OC1=O (single isomer, unassigned) [Compound 2.2] yielded an IC50 (NK3) of 3980 nM, an IC50 (NK1) of 63.1 nM and an IC50 (NK2) of 2000 nM.

With Cc1ccccc1CN1CCC2(CCN(C3CCN(C(=O)c4cc(C(F)(F)F)cc(C(F)(F)F)c4)C(Cc4ccccc4)C3)CC2)OC1=O (stereo not drawn) [Compound 2.11] the IC50 (NK3) was 7940 nM, the IC50 (NK1) was 398 nM and the IC50 (NK2) was over 10000 nM.

CCC(CC)CN1CCC2(CCN(C3CCN(C(=O)c4cc(C(F)(F)F)cc(C(F)(F)F)c4)C(Cc4ccccc4)C3)CC2)OC1=O (single isomer, unassigned) [Compound 2.4] gave an IC50 (NK3) of 7940 nM, an IC50 (NK1) of 79.4 nM and an IC50 (NK2) of 5010 nM.

Work on CC(C)(C)C(=O)N1CCC2(CC1)CCN(C1CCN(C(=O)c3cc(C(F)(F)F)cc(C(F)(F)F)c3)C(Cc3ccccc3)C1)C(=O)O2 (stereo not drawn) [Compound 1.3] yielded an IC50 (NK3) of 79.4 nM, an IC50 (NK1) of 10 nM and an IC50 (NK2) of 5010 nM.
